Measured values: patent US20200206313A1, “POLYPEPTIDE NANOTUBES LINKED BY DISULFIDE BONDS FOR TARGETED DELIVERY OF CYTOTOXIC THERAPIES” (MUSC FOUNDATION FOR RESEARCH DEVELOPMENT, priority 2018, published 2020)
No end group written: not given here. *: point of attachment. FITC = O=C1OC2(c3ccc(O)cc3Oc3cc(O)ccc32)c2ccc(NC(=S)*)cc21

How the values were obtained:
HeLa = experiment: Cytotoxicity, MTT assay, HeLa; format: cell-based
Experimental: (§1) HeLa (Cervical cancer cell line), MDA-MB-231 (Breast cancer cell line) and HaCaT (Human keratinocytes) cells were maintained in growth medium consisting of Dulbecco's Modified Eagle's Medium (DMEM, Gibco, India) with high glucose, supplemented with 10% FBS and 1% penicillin-streptomycin. The cells were grown in […] flasks (BD Falcon) and passaged every three days. All culture reagents were purchased from Thermofisher scientific. The serum free media was used to eliminate any confounding effects from serum adsorption to the nanotubes. Within the time-period (5 h) of the experiment, no adverse cellular responses were observed from serum deprivation or serum shock after a transfer from serum containing growth media.
(§2) Cytotoxicity of nanotube, DOX loaded nanotube and free DOX were assessed in HeLa and MDAMB231 using the MTT assay. About 5×10^3 cells were seeded per well of a 96-well plate and allowed to attach during incubation for 24 h in a humidified incubator at 37° C. Cells were treated with different concentrations of nanotubes, free DOX or DOX loaded nanotubes ranging from 0.2 to 6.4 μg/ml. Four hours before termination of the assay, MTT was added. Mitochondria of viable cells […] MTT to produce purple Formazan crystals. […] The absorbance of each well was measured at 570 nm using a microplate reader (Synergy HT, BioTek Instrument Inc., Winooski Vt.). […]

MDAMB231 = experiment: Cytotoxicity, MTT assay, MDAMB231; format: cell-based
Experimental: as §1, §2

HeLa cells [1] = experiment: Cellular uptake of DOX by FACS, HeLa; format: cell-based; details: percentage population, 0.4 μg/ml, the sentence does not name the cell line (HeLa assumed)
Experimental: Fluorescence-activated cell sorting (FACS) was used to quantify the cellular uptake of free Doxorubicin and that released from the Nanotube-DOX conjugates exposed to HeLa and HaCaT cells. The cells were treated with free DOX and Nanotube-DOX for 0.5, 1, 2 and 4 h using concentrations corresponding to their IC50 values. The cells were washed with DPBS to remove the unassimilated DOX and then trypsinized. The cell suspension was then centrifuged, and the pellet was re-suspended in 300 μl of DPBS with 0.1% of FBS. The DOX uptake was estimated by quantifying the cell populations using FACS employing Cell Quest software (using a FACSCalibur instrument, BD Biosciences, San Jose Calif.).

[2] = In vitro DOX release by dialysis method; format: physicochemical; details: physiological pH 7.4, 37° C., free DOX versus nanotube-DOX
Experimental: In-vitro drug release experiments were conducted using the dialysis method. The Nanotube-DOX conjugate was dialyzed against medium under different conditions: pH 5, pH 7.4, pH 7.4 with addition of 10 mM GSH, pH 5+10 mM GSH, pH 7.5+10 mM GSH+Enzyme (trypsin) and pH 5+10 mM GSH+trypsin. GSH was used to stimulate redox conditions and trypsin was used to investigate the effect of a non-specific enzyme on nanotube drug carrying ability. As a control free DOX was dialyzed against the same medium at physiological pH (7.4). All dialysis experiments were performed using a dialysis kit having a molecular mass cutoff of 1 kDa. Samples were dialyzed against the DMEM medium without phenol red (Thermofisher scientific) containing 1% P/S (Penicillin-Streptomycin, Cat no, India), 10% FBS (Fetal bovine serum, RM10432, Himedia, India) separately, with gentle and constant stirring at 37° C. At specific time points, aliquots of the medium were collected and absorbance at 495 nm was measured to quantify the release of DOX.

HeLa cells [3] = experiment: Confocal visualization of cellular uptake of DOX in HeLa cells; format: cell-based; details: 0.4 μg/ml, 1 h and 4 h
Experimental: (§3) For microscopic analysis, cells were grown on sterile coverslips with all treatments performed in DMEM without serum for 1 h or 4 h. Treatment was terminated by removing medium and cells washing cells twice with PBS followed by nuclear staining with DAPI (4′,6-diamidino-2-phenylindole) for 10 min at room temperature. Cells were then washed with DPBS and excess buffer was removed. Coverslips were then treated with Antifade (Thermo Fisher Scientific India Private Ltd.) and sealed to a sterile glass slide and analyzed by confocal microscopy (LSM 510 Meta equipped with an Airyscan module, Zeiss, GmbH, Germany).

[4] = test system: integrin receptors on the cell surface (HeLa cells); experiment: Confocal imaging of nanotube-FITC interaction with HeLa cells; format: cell-based; details: for change of cell-associated signal after integrin inhibitor RGDS: 1 h with 25 μg/ml inhibitor after 4 h incubation
Experimental: as §3

Zeta potential = format: physicochemical
Experimental: The Nano tubular size distribution was measured on Zetasizer (Malvern, Southborough, Mass., USA). The changes in the surface charges of free nanotube and nanotube-DOX were probed via the zeta potential using Nano ZS (Malvern, Southborough, Mass., USA).

[5] = Stability of nanotubes by fluorescence emission spectra at various pH and temperature; format: physicochemical
Experimental: Fluorescence spectra were acquired on a Perkin Elmer Fluorescence spectrometer. Spectra were recorded for protein samples prepared in 10 mM Tris buffer at pH 7 or 12 (i.e., neutral and basic pH) and 10 mM HEPES buffer at pH 2 (acidic pH) and data were recorded using a 1.0 cm path length quartz cuvette. An excitation wavelength of 280 nm (tyrosine excitation) was used having slit width 2.5 nm and emission spectra were collected from 300 nm to 550 nm with λmax at 340 nm.

[6] = Stability of mature nanotubes by AFM; format: physicochemical; details: ~9-months old nanotubes
Experimental: AFM experiments were performed on a NX-10 AFM (Park systems) system in the non-contact mode. The protein sample was dropped onto freshly cleaved mica and incubated for 20 min. After rinsing with Milli-Q water two times, the sample was dried in a desiccator. […] The tip radius was <10 nm. Images were obtained at a scan rate of 1 Hz.

[7] = test system: integrin-induced phosphorylation of FAK at tyrosine 397; experiment: Integrin signaling: Western blot of FAK phosphorylation at tyrosine 397 in HeLa cells; format: cell-based; details: 500 ng/ml, 1 h
Experimental: Cells were maintained as mentioned above in 65 mm dishes. HeLa cells were serum starved for 24 h to remove the effect of serum on cells. Cells were treated with nanotubes or full length IGFBP-2 (1-289) for 1 h in serum-free DMEM. An additional set of cells was treated for 1 h with nanotubes or full length IGFBP-2 without the integrin pathway inhibitor (RGDS) under the same conditions. For control treatments, cells were pretreated with 10 mM RGDS peptide for 1 h. Later, cells were washed once with PBS and lysed in detergent lysis buffer (150 mM NaCl (Sigma Aldrich, USA), 0.1% SDS (Calbiochem, Germany), 0.5% NP40 (Amresco, USA), 1 mM EDTA (pH 8) and protease inhibitor cocktail, PIC (Calbiochem) with gentle vortexing at 4° C. for 20 min and centrifuged at 10,000×g for 10 min. The soluble fraction was separated and, protein estimation was done by Bradford assay. 30 μg of total protein was dissolved in SDS sample buffer (240 mM Tris-HCl (pH 6.8), 8% (w/v) SDS, 0.1% bromophenol blue and 40% (v/v) glycerol), heated at 96° C. for 10 min and centrifuged briefly. Samples were resolved on 12.5% SDS-polyacrylamide gels in Tris-glycine electrophoresis buffer (pH 8.3) containing 25 mM Tris base, 250 mM glycine and 0.1% SDS at 100 Volts for 2 h. […]

COc1cccc2c1C(=O)c1c(O)c3c(c(O)c1C2=O)C[C@@](O)(C(=O)CO)C[C@@H]3O[C@H]1C[C@H](N)[C@H](O)[C@H](C)O1.Cl [free DOX, Doxorubicin hydrochloride]
cells killed (HeLa; 5 μg/ml, 48 h): ~70% | cells killed (MDAMB231; MDAMB231, 5 μg/ml, 48 h): ~70% | increase in Dox uptake from 2 h to 4 h (HeLa cells [1]): more than 5 fold | release of DOX into the medium [2]: faster than that of DOX loaded on the nanotube | intracellular localization of drug (HeLa cells [3]): major accumulation is seen within nuclei

Fluorescein isothiocyanate [free FITC, reference compound]
change of cell-associated signal after integrin inhibitor RGDS [4]: does not show a significant decrease

nanotube-FITC (GPLGSPGIRGSCVNPNTGK(FITC)LIQGAPTIRGDPECHLFYNEQQEACGVHTQRMT; not fully specified (bridges); also: self-assembled nanotube, subunits linked by intermolecular cysteine disulfides)
internalization / cellular distribution ([4]; 360 ng/ml, 4 h, serum free medium): no significant internalization | change of cell-associated signal after integrin inhibitor RGDS [4]: prominent loss of nanotube-FITC intensity

nanotube: Self-assembled disulfide-linked nanotube of polypeptide hIGFBP-2 249-289 (R281C), SEQ ID NO: 1, with RGD motif (GPLGSPGIRGSCVNPNTGKLIQGAPTIRGDPECHLFYNEQQEACGVHTQRMT; not fully specified (bridges); also: self-assembled nanotube, subunits linked by intermolecular disulfides (Cys12, Cys33, Cys44))
cytotoxicity of nanotube alone (HeLa; after 48 h): did not cause any appreciable cytotoxicity | cytotoxicity of nanotube alone (MDAMB231; MDAMB231, after 48 h): did not cause any appreciable cytotoxicity | zeta potential (Zeta potential): −21.4 mV | stability at different pH ([5]; pH 2, 7 and 12, fluorescence spectra): stable at all the three pH | stability at high temperature ([5]; pH 7, 90° C., fluorescence spectra): intact | morphological characteristics on storage [6]: intact | pFAK induction in presence of RGDS inhibitor ([7]; RGDS pre-treatment): compromised | intensity of pFAK ([7]; absence of inhibitor): higher compared to control cells
